# Results published in paper PMC8018653, “Gender-based differences in brain and plasma pharmacokinetics of letrozole in sprague-dawley rats: Application of physiologically-based pharmacokinetic modeling to gain quantitative insights” (PLoS ONE, 2021).
# Several values for one entry are separate records, joined by “and”; a condition that tells them apart may be missing. Equal values may be shown once. Read-outs that look alike come from different tables or passages of the source.
# Assays:
# [1] = Single dose brain ECF pharmacokinetics by intracerebral microdialysis; type: in vivo, Sprague-Dawley rats; details: single dose 4 mg/kg i.p.; for Tmax / AUC(0-t) / Kp uu: Sprague-Dawley, rat, ip; for Tmax / AUC(0-t): brain ECF (striatal microdialysate); for AUC(0-t): read-out: AUC 0–12, brain ECF; for Cmax, brain ECF / Kp uu: 4 mg/kg; for Kp uu: brain ECF / unbound plasma
# Experimental: Within 10 minutes of collection, plasma was separated by centrifugation of the blood samples at 4,000 rpm for 15 min. Microdialysis samples were collected simultaneously through the probes at the same time points from 0–12 hours.
# [2] = Whole body PBPK model with multi-compartment brain model (Simcyp Animal Simulator V17); design: species or system rat
# Excerpt: Simcyp Animal Simulator V17 (Certara Inc.) was employed for developing a bottom-up whole body PBPK model incorporating the specified multi-compartment brain model. Based on its anatomy and physiology, the whole brain is described by three compartments, viz. brain blood, brain mass and cerebrospinal fluid (CSF) as illustrated in Fig 1 (Simcyp® Rat Simulator). For model development, the physiological/ system-specific parameters were inferred from the existing rodent species within the animal simulator while, the key drug- specific parameters used are summarized in Table 1. Briefly, all the physiochemical and binding to blood components (plasma proteins and erythrocytes) parameters of letrozole were derived from expansive literature review. The first-order rate of absorption (Ka) and bioavailability following oral administration and systemic clearance values in male and female rats were obtained from a previously reported pharmacokinetic study and the first-order absorption model best fit the letrozole data. Full-PBPK model was employed for drug distribution while the Rodgers and Rowland method or “Method 2”, as defined in Simcyp v17, predicted the volume of distribution (Vss). For the multi-compartment brain model, the passive permeability-surface area product on the BBB (PSB) was determined using the Crone- Renkin Equation [25, 26]: PSB=−Fpfln(1−Kin/Fpf) (3) where, Fpf is the cerebral blood or perfusion flow rate and Kin is the brain uptake clearance. We used 0.036 mL/sec/g as the Fpf for letrozole, based on a previous study that obtained an average cerebral perfusion flow rate value for lipophilic compounds [25]. […] The passive permeability-surface area product on the blood-cerebrospinal fluid barrier (BCSFB), PSC, was assumed as half of the PSB [19, 27] while the passive permeability-surface area product on the cerebrospinal fluid-brain barrier (CSFBB), PSE, was set at 80 mL/min, assuming a high permeability of this barrier. Brain ECF concentrations were predicted using the in vivo unbound fraction in the brain (fu, brain) for letrozole multiplied by the simulated total brain concentrations. The fu, brain for letrozole was experimentally determined in both healthy and tumor-bearing female Sprague-Dawley rats (N = 4/ group). Following single dose intraperitoneal administration of 4 mg/kg letrozole, both brain ECF (representative of unbound drug concentration in the brain) and whole brain tissue samples were collected at the same corresponding timepoint around the Tmax (~6 hrs) of letrozole in brain ECF and the fu, brain was calculated based on the ratio of observed brain ECF to the whole brain tissue homogenate concentrations of letrozole (0.58 ± 0.19; mean ± SD).
# For evaluation of model predictions, the PBPK model developed was used to simulate extravascular administration of single/ multiple doses of letrozole (4 mg/kg) in rodents. To evaluate the predictive performance of the PBPK model, we compared the ratio of the predicted exposure change (Cmax and AUC ratios) against the observed data. A 1.25-fold under‐ or over‐prediction was considered good and within 1.5‐fold was deemed reasonable.
# [3] = design: method as in PMID 23712697; details: in situ mouse brain perfusion; cited from earlier work
# [4] = design: method as in PMID 11501174; details: cited from earlier work; for CLpo: assuming 250 g average body weight
# [5] = design: method as in PMID 16489364; details: cited from earlier work
# [6] = Steady state brain ECF pharmacokinetics by intracerebral microdialysis; details: for Kp uu at 264 h / Kp uu / Kp uu at 120 h: intraperitoneal; for Kp uu at 264 h: 11 days; for Kp uu: Kpuu, range over single dose and steady state (Cmax and AUC0-12); for Kp uu at 120 h: 5 days
# Experimental: The average in vitro relative recovery of letrozole was determined at a flow rate of 2.0 μ1/min at 35°C.
# Microdialysis probes were surgically implanted in jugular vein cannulated rats under anesthesia (ketamine/ xylazine 70/ 6 mg/kg i.p., Henry Schein, NY) one day prior to the experiment. Buprenorphine (Buprenex®, Henry Schein, NY) was administered for perioperative analgesia. The probe was inserted into the striatum with the following tip coordinates: A/P, 1.2 mm, L, 3.1 mm, and D/V −7.8 mm, according to the stereotaxic atlas of Paxinos and Watson [21]. The active portion of the membrane for the probes was 4.5 mm. Following implantation, the probes were connected to an infusion pump set to deliver modified Dulbecco’s phosphate buffered saline containing 1.2 mm CaCl2 and 5 mM glucose at a flow rate of 1 μl/min overnight.
# To establish the steady state, letrozole was administered via the intraperitoneal route at a dose of 4mg/kg o.d for 11 days (female rats) and 5 days (male rats) based on the previously published data and our preliminary experiments. On the day of the experiment (last day of dosing), blood and dialysis samples were collected concurrently as described above at the following time points- pre-dose, 1, 2, 4, 6, 8 and12 h post administration. An additional 24 hr time point was included in the plasma sample collection and all the samples were stored at -80°C until analyzed.
# Three sets of calibration plots were constructed for method validation.
# Non-compartmental analysis (NCA) was performed using Phoenix WinNonlin® software (version 6.2.1, Pharsight, St. Louis, MO, USA) and the PK parameters determined included peak concentration (Cmax), time to reach peak concentration (Tmax), area under the concentration-time curve between time zero to the last observed concentration time point (AUC0- t) and the elimination half-life (t1/2). Actual sampling times were employed for calculations except for the pre-dose times, which were kept as zero. Since the blood sampling period spanned less than 4.5 half-lives in female rats, plasma AUC0-∞ values could not be determined reliably. Consequently, we were constrained to reporting AUC0-t values for letrozole in this study which was calculated using the linear trapezoidal method. For consistency, only AUC0-t values were reported for male rats as well. Cmax and Tmax values were obtained directly from the concentration-time data. […] Brain ECF concentrations were time-averaged over the collection interval and were corrected for the observed relative recovery. The brain-to-plasma unbound partition coefficients (Kpuu) were calculated as a ratio of the Cmax or AUC0-12 of letrozole levels in the brain ECF to corresponding plasma Cmax and AUC values corrected for plasma protein binding.
# [7] = females, steady state, 4 mg/kg for 11 days
# [8] = males, steady state, 4 mg/kg for 5 days
structure (smiles),measurement,setting,value
N#Cc1ccc(C(c2ccc(C#N)cc2)n2cncn2)cc1 [letrozole],Tmax,[1]; female rats,6.9 h
same,AUC(0-t),[1]; female rats,5.75 µg·h/mL
same,Tmax,[1]; male rats,4.7 h
same,AUC(0-t),[1]; male rats,2.41 µg·h/mL
same,"Cmax, brain ECF",[1]; female rats,660 ± 260 ng/ml and 660 (260)* ng/ml and 660 ng/ml
same,Kp uu,"[1]; female, female rats, read-out: Kpuu (AUC0-12 brain ECF / plasma unbound)",1.3
same,Kp uu,"[1]; female, female rats, read-out: Kpuu (Cmax brain ECF / plasma unbound)",1.4
same,"Cmax, brain ECF",[1]; male rats,260 ± 80 ng/ml and 260 (80) ng/ml and 260 ng/ml
same,Kp uu,"[1]; male, male rats, read-out: Kpuu (AUC0-12 brain ECF / plasma unbound)",0.6
same,Kp uu,"[1]; male, male rats, read-out: Kpuu (Cmax brain ECF / plasma unbound)",0.6
same,"brain ECF AUC0-12, female versus male difference",[1],2.4 fold
same,"brain ECF Cmax, female versus male difference",[1],2.5 fold
same,"AUC 0–12, brain ECF, predicted/observed ratio","[2]; females, single dose 4 mg/kg",0.81
same,"AUC 0–72, plasma, predicted/observed ratio","[2]; females, single dose 4 mg/kg",0.95
same,"Cmax, brain ECF, predicted/observed ratio","[2]; females, single dose 4 mg/kg",0.71
same,"Cmax, plasma, predicted/observed ratio","[2]; females, single dose 4 mg/kg",0.90
same,"Half-life t1/2, plasma, predicted/observed ratio","[2]; females, single dose 4 mg/kg",1.29
same,"AUC 0–12, brain ECF, predicted/observed ratio",[2]; [7],0.78
same,"AUC 0–24, plasma, predicted/observed ratio",[2]; [7],0.77
same,"Cmax, brain ECF, predicted/observed ratio",[2]; [7],0.66
same,"Cmax, plasma, predicted/observed ratio",[2]; [7],0.76
same,"AUC 0–12, brain ECF, predicted/observed ratio","[2]; males, single dose 4 mg/kg",1.29
same,"AUC 0–72, plasma, predicted/observed ratio","[2]; males, single dose 4 mg/kg",0.85
same,"Cmax, brain ECF, predicted/observed ratio","[2]; males, single dose 4 mg/kg",1.19
same,"Cmax, plasma, predicted/observed ratio","[2]; males, single dose 4 mg/kg",0.75
same,"Half-life t1/2, plasma, predicted/observed ratio","[2]; males, single dose 4 mg/kg",1.45
same,"AUC 0–12, brain ECF, predicted/observed ratio",[2]; [8],1.07
same,"AUC 0–24, plasma, predicted/observed ratio",[2]; [8],0.87
same,"Cmax, brain ECF, predicted/observed ratio",[2]; [8],0.96
same,"Cmax, plasma, predicted/observed ratio",[2]; [8],0.80
same,Kin (brain uptake clearance),[3],0.422 ± 0.068 mL/min/g brain
same,Fa,[4]; PBPK input,0.99
same,CLpo,[4]; females,0.21 mL/min
same,CL,[4]; females,0.051 L/h/kg
same,Ka (first-order rate of absorption),[4]; females,0.49 h⁻¹
same,CLpo,[4]; males,0.77 mL/min
same,CL,[4]; males,0.185 L/h/kg
same,Ka (first-order rate of absorption),[4]; males,0.29 h⁻¹
same,oral bioavailability,[5],~100%
same,accumulation at steady state (brain ECF Cmax and AUC0-12),[6]; female rats,3.5 to 4.0 fold
same,"predicted steady state average concentration, brain ECF",[6]; female rats,"~1,000 ng/ml"
same,"Rac brain (observed accumulation ratio, AUC0-12)","[6]; female rats, Day 11 / Day 1",4.2
same,"Rac brain (observed accumulation ratio, Cmax)","[6]; female rats, Day 11 / Day 1",3.5
same,Kp uu at 264 h,"[6]; female, Sprague-Dawley, rat, brain ECF / unbound plasma, 4 mg/kg, Kpuu (AUC0-12 brain ECF / plasma unbound), female rats, steady state",1.3
same,Kp uu at 264 h,"[6]; female, Sprague-Dawley, rat, brain ECF / unbound plasma, 4 mg/kg, Kpuu (Cmax brain ECF / plasma unbound), female rats, steady state",1.2
same,Kp uu,"[6]; female, Sprague-Dawley, rat, brain ECF / unbound plasma, 4 mg/kg, female rats",1.2 to 1.4
same,accumulation at steady state (brain ECF Cmax and AUC0-12),[6]; male rats,2.0 fold
same,"predicted steady state average concentration, brain ECF",[6]; male rats,~210 ng/mL
same,"Rac brain (observed accumulation ratio, AUC0-12)","[6]; male rats, Day 5 / Day 1",2.0
same,"Rac brain (observed accumulation ratio, Cmax)","[6]; male rats, Day 5 / Day 1",1.9
same,"Cmax, brain ECF","[6]; male rats, steady state, 4 mg/kg i.p. daily for 5 days, 4 mg/kg",490 ± 240 ng/ml and 490 (240) ng/ml and 490 ng/ml
same,Kp uu at 120 h,"[6]; male, Sprague-Dawley, rat, brain ECF (striatal microdialysate) / unbound plasma, 4 mg/kg, Kpuu (AUC0-12 brain ECF / plasma unbound), male rats, steady state",0.9
same,Tmax,"[6]; male, Sprague-Dawley, rat, brain ECF (striatal microdialysate), ip, 4 mg/kg",3.3 h
same,AUC(0-t),"[6]; male, Sprague-Dawley, rat, brain ECF (striatal microdialysate), ip, 4 mg/kg, AUC 0–12, brain ECF, male rats, steady state, 4 mg/kg i.p. daily for 5 days",4.82 µg·h/mL
same,AUC(0-t),"[6]; male, Sprague-Dawley, rat, brain ECF (striatal microdialysate), ip, 4 mg/kg, brain ECF AUC 0–12, male rats, steady state, 4 mg/kg i.p. daily for 5 days",4.8 µg·h/mL
same,Kp uu at 120 h,"[6]; male, Sprague-Dawley, rat, brain ECF / unbound plasma, 4 mg/kg, Kpuu (Cmax brain ECF / plasma unbound), male rats, steady state",0.9
same,Kp uu,"[6]; male, Sprague-Dawley, rat, brain ECF / unbound plasma, 4 mg/kg, male rats",0.6 to 0.9
same,"brain ECF exposure (Cmax, AUC0-12), higher in female rats",[6]; steady state,4.7 to 5 fold
